Patent publication US20220411362A1, “DITERPENOID COMPOUNDS THAT ACT ON PROTEIN KINASE C (PKC)” (K-Gen, Inc., priority 2019, published 2022)

Columns and labels:
C1b domain of human PKCδ = biological target: T1, C1b domain of human PKCδ (Homo sapiens, UniProt Q05655); assay: Competitive 3H-PDBu binding to C1b domain of PKCδ; details: Ki PKCδ, 3H-PDBu competition
T1 construct: Genes encoding C1b domains of human PKCα, δ, ε, θ, and PKD1 (PKCμ) were synthesized; made in house; host or cells: E. coli BL21(DE3)
T1 sequence (Q05655 230-280 limits assumed): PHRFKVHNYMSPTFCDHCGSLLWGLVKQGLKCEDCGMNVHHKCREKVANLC
Protocol: (§1) Compounds described in this disclosure were tested for binding affinity to C1b domain of PKC isoforms. Compound binding affinity to C1b domain of PKC isoforms was derived from competitive binding assay using radioactive tracer ^3H-PDBu and recombinant GST-C1b or full-length of human PKC proteins based on modified procedures from Methods in Molecular Biology, vol.
(§2) Genes encoding C1b domains of human PKCα, δ, ε, θ, and PKD1 (PKCμ) were synthesized and inserted into pGEX-2TK or pGEX-4T1 vectors for expression and production of GST-C1b proteins in E. coli BL21(DE3) via IPTG induction. The target proteins were purified by glutathione sepharose 4B and followed by ion exchange chromatography if needed to achieve purity >70%. Aliquots of the purified proteins were stored at −80 degree for binding assay (storage buffer: 20 mM Tris pH 8.0, 200 mM NaCl, 10% glycerol, 1 mM DTT).
(§3) The plate was incubated at 37° C. on a shaker at 300 rpm for 10 minutes and then put on ice for 20 minutes. […] The bottom of the filter plate was sealed and 50 μL of MicroScint-20 (PerkinElmer) cocktail was added to each well. ^3H-PDBu trapped in each well was counted using PerkinElmer MicroBeta2 Reader. Data were analyzed using GraphPad Prism5 with the model “log(inhibitor) vs. response-variable slope” to fit the IC50, and then IC50 was transformed to Ki using Cheng-Prusoff equation: Ki=IC50/(1+added radio ligand/Kd). Kd is the binding affinity of each protein preparation to ^3H-PDBu, determined experimentally.

C1b domain of human PKCα = biological target: T2, C1b domain of human PKCα (Homo sapiens, UniProt P17252); assay: biochemical; type: binding; details: 3H-PDBu competition; for Ki: Ki PKCα
T2 construct: Genes encoding C1b domains of human PKCα, δ, ε, θ, and PKD1 (PKCμ) were synthesized; made in house; host or cells: E. coli BL21(DE3)
Protocol: as §1, §2
The plate was incubated at 37° C. on a shaker at 300 rpm for 10 minutes and then put on ice for 20 minutes. […] The bottom of the filter plate was sealed and 50 μL of MicroScint-20 (PerkinElmer) cocktail was added to each well. ^3H-PDBu trapped in each well was counted using PerkinElmer MicroBeta2 Reader. […] Kd is the binding affinity of each protein preparation to ^3H-PDBu, determined experimentally.

[1] = biological target: T3, C1b domain of human PKD1 (PKCμ) (Homo sapiens, UniProt Q15139); assay: biochemical; type: binding
T3 construct: Genes encoding C1b domains of human PKCα, δ, ε, θ, and PKD1 (PKCμ) were synthesized; made in house; host or cells: E. coli BL21(DE3)
T3 sequence (Q15139 270-320 limits assumed): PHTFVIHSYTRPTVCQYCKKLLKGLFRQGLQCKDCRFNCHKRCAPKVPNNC
Protocol: as §1, §2, §3

[2] = system: A549 non-small cell lung cancer cell line; assay: Proliferation of A549 (CellTiter Glo); type: cell-based; details: Homo sapiens, A549, 96 h, read-out: IC50 μM (A549 Cell Line)
Protocol: (§4) The diterpenoid compounds were tested in A549, a non-small cell lung cancer cell line harboring a K-Ras activating mutation. Briefly, A549 cells at a density of 1,000 cells/well were seeded in 96-well plates and incubated at 37° C. for 24 hours. A series of different concentrations of compound stocks (500×) were prepared by 3-fold serial dilution in DMSO. These compounds were further diluted in culture media and then added to cells so that the final DMSO concentration was not exceeding 0.25%. After 96 hours of incubation, 50 μL of CellTiter Glo reagent (Promega) was added to each well and luminescence was measured after 10 minutes using EnVision (PerkinElmer). Luminescence from cells treated with DMSO alone was set as Max and % of inhibition was calculated as follows: Inhibition %=(Max−Sample value)/Max×100. Data was analyzed using XL-fit software (ID Business Solutions Ltd.) and IC50, relative IC50, and % of top inhibition was calculated. Some of the compounds in this disclosure were very potent in blocking proliferation of A549 lung cancer cells at low nM range. In addition, potency of inhibiting A549 proliferation correlated well with its binding affinity to PKCs for this series of compounds. In other words, higher affinity binders had stronger inhibitory effects on A549 proliferation. This further support the notion that activation, rather than inhibition, of certain PKC isoforms is required to block proliferation of cancer cells, some of which may harbor K-Ras mutations. This is in sharp contrast to previous literature and common belief that inhibition of PKC is necessary to block cancer cell growth (Kang, 2014, New Journal of Science, 2014:1-36). Data presented here is in agreement with recent findings that many loss-of-function but not gain-of-function mutations of PKC isoforms have been identified in many human cancers (Antal et al., 2015, Cell, 160:489-502).

[3] = system: Panc2.13 (Pancreatic) cell line; assay: Proliferation of Panc2.13; type: cell-based; details: for ratio of (IC50 of K01)/(IC50 of compound), Panc2.13: value in parenthesis; for IC50: read-out: IC50 in μM Panc2.13 (Pancreatic)
Protocol: as §4
(§5) The compounds in this disclosure were tested for their potency in blocking proliferation of a few other cancer cells lines, including K-Ras mutant pancreatic cell lines Panc2.13 and KP-4, leukemia cell line HL-60, and lymphoma cell lines Namalwa and Mino. Similar procedures as in Example 67 were followed. Initial cell numbers seeded in 96-well plates were different for different cell lines: 3000 cells/well for Panc2.13; 800-1000 cells/well for KP-4; 5000 cells/well for HL-60; 5000-10000 cells/well for Namalwa and Mino. A ratio ratio of (IC50 of K01)/(IC50 of compound) (data in parenthesis in Table 5) was used to normalize the compound potency from different assay batches to a common comparator […].

[4] = system: KP-4 (Pancreatic) cell line; assay: Proliferation of KP-4; type: cell-based; details: Homo sapiens, KP-4, read-out: IC50 in μM KP-4 (Pancreatic)
Protocol: as §4, §5

[5] = system: HL-60 (Leukemia) cell line; assay: Proliferation of HL-60; type: cell-based; details: for ratio of (IC50 of K01)/(IC50 of compound), HL-60: value in parenthesis; for IC50: Homo sapiens, HL-60, read-out: IC50 in μM HL-60 (Leukemia)
Protocol: as §4, §5

[6] = system: Namalwa (Lymphoma) cell line; assay: Proliferation of Namalwa; type: cell-based; details: for ratio of (IC50 of K01)/(IC50 of compound), Namalwa: value in parenthesis; for IC50: read-out: IC50 in μM Namalwa (Lymphoma)
Protocol: as §4, §5

[7] = system: Mino (Lymphoma) cell line; assay: Proliferation of Mino; type: cell-based; details: for IC50: Homo sapiens, MINO, read-out: IC50 in μM Mino (Lymphoma); for ratio of (IC50 of K01)/(IC50 of compound), Mino: value in parenthesis
Protocol: as §4, §5

C1b domain of human PKCθ = biological target: T4, C1b domain of human PKCθ (Homo sapiens, UniProt Q04759); assay: Competitive 3H-PDBu binding to C1b domain of PKCθ
T4 construct: Genes encoding C1b domains of human PKCα, δ, ε, θ, and PKD1 (PKCμ) were synthesized; made in house; host or cells: E. coli BL21(DE3)
T4 sequence (Q04759 231-281 limits assumed): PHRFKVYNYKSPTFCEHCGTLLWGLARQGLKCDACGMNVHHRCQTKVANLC
Protocol: as §1, §2, §3

C1b domain of human PKCε = biological target: T5, C1b domain of human PKCε (Homo sapiens, UniProt Q02156); assay: Competitive 3H-PDBu binding to C1b domain of PKCε
T5 construct: Genes encoding C1b domains of human PKCα, δ, ε, θ, and PKD1 (PKCμ) were synthesized; made in house; host or cells: E. coli BL21(DE3)
T5 sequence (Q02156 242-292 limits assumed): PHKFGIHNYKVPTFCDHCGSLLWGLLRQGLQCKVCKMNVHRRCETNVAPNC
Protocol: as §1, §2, §3

| SMILES | Ki (C1b domain of human PKCδ) | Ki (C1b domain of human PKCα) | Ki [1] | IC50 [2] | ratio of (IC50 of K01)/(IC50 of compound), Panc2.13 [3] | IC50 [3] | IC50 [4] | ratio of (IC50 of K01)/(IC50 of compound), HL-60 [5] | IC50 [5] | ratio of (IC50 of K01)/(IC50 of compound), Namalwa [6] | IC50 [6] | IC50 [7] | ratio of (IC50 of K01)/(IC50 of compound), Mino [7] | Ki (C1b domain of human PKCθ) | Ki (C1b domain of human PKCε) | Ki PKCα (C1b domain of human PKCα) |
| --- | --- | --- | --- | --- | --- | --- | --- | --- | --- | --- | --- | --- | --- | --- | --- | --- |
| CC1=C[C@H]2[C@@]3(O)[C@H](C)C[C@]4(OC(=O)[C@@H](N)Cc5ccc(C(F)(F)F)cc5)[C@H]([C@@H]3C=C(CO)C[C@]2(O)C1=O)C4(C)C [Compound K101-C1342] | 5 to 10 nM | 100 to 200 nM | < 5 nM | 0.06 to 0.1 µM | 6.79 | 0.1 to 0.2 µM | 0.06 to 0.1 µM | 6.43 | 0.03 to 0.06 µM | 1.68 | 0.03 to 0.06 µM | 0.01 to 0.03 µM | 6.2 | – | – | – |
| CC1=C[C@H]2[C@@]3(O)[C@H](C)C[C@]4(OC(=O)CCc5ccc(C(F)(F)F)cc5)[C@H]([C@@H]3C=C(CO)C[C@]2(O)C1=O)C4(C)C [Compound K101-C1302] | < 5 nM | 30 to 60 nM | < 5 nM | 0.01 to 0.03 µM | – | – | – | 72 | 0.001 to 0.01 µM | 13.8 | 0.001 to 0.01 µM | < 0.001 µM | 75 | < 5 nM | < 5 nM | – |
| CC/C=C\C/C=C\C/C=C\C/C=C\C/C=C\C/C=C\CCC(=O)O[C@@]12C[C@@H](C)[C@@]3(O)[C@@H](C=C(CO)C[C@]4(O)C(=O)C(C)=C[C@@H]34)[C@@H]1C2(C)C [Compound K101-C1333] | < 5 nM | – | < 5 nM | 0.001 to 0.01 µM | 157 | 0.001 to 0.01 µM | 0.001 to 0.01 µM | 80 | 0.001 to 0.01 µM | 20.9 | 0.001 to 0.01 µM | < 0.001 µM | 82.5 | < 5 nM | 1 to 30 nM | E (E=>60 nM and ≤10 nM) |
| CC1=C[C@H]2[C@@]3(O)[C@H](C)C[C@]4(OC(=O)CCCc5ccccc5)[C@H]([C@@H]3C=C(CO)C[C@]2(O)C1=O)C4(C)C [Compound K101-C1324] | < 5 nM | 100 to 200 nM | < 5 nM | 0.01 to 0.03 µM | – | – | – | 32.7 | 0.01 to 0.03 µM | 8.63 | 0.001 to 0.01 µM | 0.001 to 0.01 µM | 37.5 | < 5 nM | < 5 nM | – |
| CC1=C[C@H]2[C@@]3(O)[C@H](C)C[C@]4(OC(=O)[C@@H](N)C(C)(C)c5ccc(C(F)(F)F)cc5)[C@H]([C@@H]3C=C(CO)C[C@]2(O)C1=O)C4(C)C [Compound K101-C134902] | < 5 nM | 30 to 60 nM | < 5 nM | 0.03 to 0.06 µM | – | – | – | 12 | 0.01 to 0.03 µM | 3.5 | 0.01 to 0.03 µM | 0.001 to 0.01 µM | 15.7 | 5 to 10 nM | 1 to 30 nM | – |
